The values that follow are results of earlier work, collected in patent publication US8460861B2, “Method for producing hydrogen-containing fluid able to be used in a living organism” (MIZ Co. Ltd., priority 2009, dated 2013).

The conditions of this series: 20 C degrees under 1 barometric pressure.

Molecules are shown by their SMILES.

Consider `[HH]` [molecular hydrogen], for which the saturation concentration is 1.6 ppm.
